Tests used:
[1] = tested on: P. falciparum male gametocytes; experiment: P. falciparum Dual Gamete Formation Assay (PfDGFA), male readout (exflagellation); type: cell-based, Plasmodium falciparum NF54; conditions: for % inhibition male (individual replicates) R1: replicate R1; for % inhibition male (individual replicates) R3: replicate R3; for % inhibition male (individual replicates) R4: replicate R4; for Average inhibition male (%): average of replicates; for Activity: hit = >50% inhibition in male or female readout in at least 3 replicates, 0 = no class assigned
How it was run: (§1)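 Read-outs are automated image counts of exflagellation centres (brightfield, 10 frames over 1 s) and Pfs25-positive female gametes (Cy3 fluorescence).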

[2] = tested on: P. falciparum female gametocytes; experiment: P. falciparum Dual Gamete Formation Assay (PfDGFA), female readout (Pfs25-positive female gametes); type: cell-based, Plasmodium falciparum NF54; conditions: for % inhibition female (individual replicates) R1: replicate R1; for % inhibition female (individual replicates) R3: replicate R3; for % inhibition female (individual replicates) R4: replicate R4; for Average inhibition female (%): average of replicates
How it was run: as §1

[3] = PfDGFA at 2µM, 24h preincubation with gametocytes prior to induction of gametogenesis
[4] = PfDGFA at 2µM, 24h preincubation
[5] = 2µM, 24h preincubation with gametocytes prior to induction of gametogenesis
[6] = 2µM, 24h preincubation, hits selected on >50% inhibition in the male readout across replicates
[7] = 2µM, 24h preincubation, hits selected on >50% inhibition in the female readout across replicates
[8] = 2µM, 24h preincubation, number of replicates with >50% inhibition in the male readout
[9] = 2µM, 24h preincubation, number of replicates with >50% inhibition in the female readout
[10] = PfDGFA at 2µM, 24h preincubation with gametocytes

Row | Compound | % inhibition male (individual replicates) R1 [1, 3] [%] | % inhibition male (individual replicates) R4 [1, 3] [%] | Average inhibition male (%) [1, 4] [%] | % inhibition female (individual replicates) R1 [2, 3] [%] | % inhibition female (individual replicates) R3 [2, 3] [%] | % inhibition female (individual replicates) R4 [2, 3] [%] | Average inhibition female (%) [2, 4] [%] | Average inhibition male (%) [1, 5] [%] | % inhibition male (individual replicates) R1 [1, 5] [%] | % inhibition male (individual replicates) R3 [1, 5] [%] | % inhibition male (individual replicates) R4 [1, 5] [%] | Average inhibition female (%) [2, 5] [%] | % inhibition female (individual replicates) R1 [2, 5] [%] | % inhibition female (individual replicates) R3 [2, 5] [%] | % inhibition female (individual replicates) R4 [2, 5] [%] | also measured
1 | O=C(C1CCCC1)N1CCOC(CCN2CCC(c3ccccc3)CC2)(c2ccc(Cl)c(Cl)c2)C1 (centres unmarked) [TCMDC-135327] | 1.8 | 15.6 | 8.1 | 8.8 | -20.5 | 17.1 | -1.8 |  |  |  |  |  |  |  |  | % inhibition male (individual replicates) R3 [1, 3]: 11.7%
2 | O=C(Nc1ccc(C(=O)OCC2CCCCC2)cc1)N[C@@H](Cc1ccc(O)cc1)C(=O)NC1CCN(Cc2ccc(O)cc2)C1.O=C(O)C(F)(F)F (some centres unmarked) [TCMDC-135357] |  |  |  |  |  |  |  | -19.1 | -13.6 | -12.1 | -40.5 | 4.9 | 8.9 | 10.5 | 8.3 | HitlevelM [1, 6]: 0; Activity [1, 4]: 0; HitlevelF [2, 7]: 0
3 | C=C[C@]1(C)C[C@@H](OC(=O)CNC[C@@H](O)CN2C[C@H](c3ccnc4ccc(OC)nc34)OC2=O)[C@]2(C)[C@H](C)CC[C@]3(CCC(=O)[C@H]32)[C@@H](C)[C@@H]1O [TCMDC-135366] | -4.9 | 9.5 | -1.6 | -19.6 | -21.7 | -0.7 | -7.1 |  |  |  |  |  |  |  |  | % inhibition male (individual replicates) R3 [1, 3]: -9.1%
4 | COc1cc(NC(=O)c2sc(-c3ccc(Cl)cc3)cc2NC(=O)c2cccnc2)ccc1OCCN1CCCC1 [TCMDC-135397] |  |  |  |  |  |  |  | 57.2 | 45.5 | 40.3 | 71.6 | 46.9 | 19.3 | 58.0 | 48.0 | HitlevelM [1, 8]: 2; HitlevelF [2, 9]: 2
5 | CCCCN(Cc1cc(Cl)c(OC)c(OC)c1)c1ccc(C(O)(C(F)(F)F)C(F)(F)F)cc1.O=C(O)C(F)(F)F [TCMDC-135446] | -14.8 | -29.5 | -22.3 | 1.9 | -6.9 | 1.5 | -3.4 |  |  |  |  |  |  |  |  | 
6 | NCCCNc1nccc(N2CCc3ncnc(Nc4ccc(OCc5cccc(F)c5)c(Cl)c4)c3C2)n1 [TCMDC-135456] |  |  |  |  |  |  |  | -16.9 | -14.5 | -30.0 | -11.8 | 13.8 | 10.7 | -9.6 | 40.7 | HitlevelM [1, 6]: 0; Activity [1, 4]: 0; HitlevelF [2, 7]: 0
7 | COc1cc2ccccc2cc1OCCCN1CCN(CC(c2ccc(F)cc2)N2CCN(C(C)C)CC2)CC1.Cl (centres unmarked) [TCMDC-135496] |  |  |  |  |  |  |  | 6.1 | 10.5 | -16.9 | 18.2 | 22.9 | 29.5 | 8.0 | 29.0 | HitlevelM [1, 8]: 0; HitlevelF [2, 9]: 0
8 | CC(C)N1CCN(C(CN2CCN(CCCOc3ccccc3-c3ccccc3)CC2)c2ccc(F)cc2)CC1.Cl (centres unmarked) [TCMDC-135499] |  |  |  |  |  |  |  | 13.5 | 15.7 | 14.1 | 9.5 | 28.0 | 23.1 | 16.4 | 32.9 | HitlevelM [1, 8]: 0; HitlevelF [2, 9]: 0
9 | CC(=O)Nc1cccc(Nc2nccc(-c3c(-c4cccc(NC(=O)c5c(F)cccc5F)c4)nn4ncccc34)n2)c1 [TCMDC-135548] | 29.2 | -3.8 | 8.8 | -7.4 | -25.4 | -8.4 | -11.7 |  |  |  |  |  |  |  |  | % inhibition male (individual replicates) R3 [1, 3]: 23.6%
10 | CCS(=O)(=O)c1ccc(OC)c(Nc2nccc(-c3c(-c4cccc(NC(=O)c5c(F)cccc5F)c4)nn4ncccc34)n2)c1 [TCMDC-135682] |  |  |  |  |  |  |  | 69.4 | 83.8 |  | 34.3 | 14.6 | 17.1 | 13.9 | 13.6 | HitlevelM [1, 6]: 2; Activity [1, 4]: 0; HitlevelF [2, 7]: 0
11 | C[C@@H](Oc1cc(-n2cnc3ccc(OCC4CCN(S(C)(=O)=O)CC4)cc32)sc1C(N)=O)c1ccccc1C(F)(F)F [TCMDC-135685] |  |  |  |  |  |  |  | 39.3 | 77.8 | 32.6 | -12.5 | 30.5 | 13.3 | 19.8 | 50.4 | HitlevelM [1, 8]: 2; HitlevelF [2, 9]: 1
12 | COc1ccc2ncc(F)c(CCN3CCC(NCc4cc(F)c5c(c4)OCCO5)CC3)c2n1.Cl [TCMDC-135849] | -15.0 | -21.8 | -22.8 | 9.2 | -25.5 | 10.6 | -0.168 |  |  |  |  |  |  |  |  | % inhibition male (individual replicates) R3 [1, 3]: -30.0%
13 | COc1ccc(-c2cnc3[nH]cc(-c4ccncc4)c3c2)cc1OC [TCMDC-135853] |  |  |  |  |  |  |  |  |  |  |  |  |  |  |  | Average inhibition male (%) [1, 10]: 73.2%; % inhibition male (individual replicates) R1 [1, 10]: 70.5%; % inhibition male (individual replicates) R3 [1, 10]: 62.1%; % inhibition male (individual replicates) R4 [1, 10]: 76.3%; HitlevelM ([1]; number of replicates with >50% inhibition in the male readout, 2µM): 4; Average inhibition female (%) [2, 10]: 15.5%; % inhibition female (individual replicates) R1 [2, 10]: 9.0%; % inhibition female (individual replicates) R3 [2, 10]: 36.4%; % inhibition female (individual replicates) R4 [2, 10]: 5.3%; HitlevelF ([2]; number of replicates with >50% inhibition in the female readout, 2µM): 0
14 | CC(C)CN1CCC(COc2ccc3ncn(-c4cc(O[C@H](C)c5ccccc5C(F)(F)F)c(C(N)=O)s4)c3c2)CC1 [TCMDC-135856] | 69.3 | -19.8 | 39.0 | -5.1 | 3.7 | -5.5 | -0.7 |  |  |  |  |  |  |  |  | 
